Laboratory results: ChEMBL document CHEMBL3286258, “Medicinal chemistry of inhibitors of 11β-hydroxysteroid dehydrogenase type 1 (11β-HSD1)” (J Med Chem, 2014)
pIC50: −log10 of the molar value. Values belong to the compound of their own block, whether it stands above or below them.

Legend:
[1] = molecular target: T1, 11-beta-hydroxysteroid dehydrogenase 1 (Mus musculus, UniProt P50172); experiment: Inhibition of mouse 11beta-HSD1
[2] = Oral bioavailability in mouse; type: ADME, organism-based; settings: in vivo
[3] = Clearance in mouse; type: ADME, organism-based; settings: in vivo
Homo sapiens [4] = species on record: Homo sapiens; experiment: Reduction in hBA1c in type 2 diabetic patient; type: functional; parameters: scale not given: the % may be the effect or the level left
Homo sapiens [5] = species on record: Homo sapiens; experiment: Toxicity in type 2 diabetic patient assessed as increase in LDL-cholesterol level at 6 mg/day relative to placebo-control; type: organism-based; settings: in vivo
Homo sapiens [6] = species on record: Homo sapiens; experiment: Toxicity in type 2 diabetic patient assessed as increase in circulating adrenal androgen at 6 mg/day relative to placebo-control; type: organism-based; settings: in vivo
[7] = molecular target: T2, 11-beta-hydroxysteroid dehydrogenase type 2 (Homo sapiens, UniProt P80365); experiment: Inhibition of human 11beta-HSD2
T2 sequence (P80365 whole entry): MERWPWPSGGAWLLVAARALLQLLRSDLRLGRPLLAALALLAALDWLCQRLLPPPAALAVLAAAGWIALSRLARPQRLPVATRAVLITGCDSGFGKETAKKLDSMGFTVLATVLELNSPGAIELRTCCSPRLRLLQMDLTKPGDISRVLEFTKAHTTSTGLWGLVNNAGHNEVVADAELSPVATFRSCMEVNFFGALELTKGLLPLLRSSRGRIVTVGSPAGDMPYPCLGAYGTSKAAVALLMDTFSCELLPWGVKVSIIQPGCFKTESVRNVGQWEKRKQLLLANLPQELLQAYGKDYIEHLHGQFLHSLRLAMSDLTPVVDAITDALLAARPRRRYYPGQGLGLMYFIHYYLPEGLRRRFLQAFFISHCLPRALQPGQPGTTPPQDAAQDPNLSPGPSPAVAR

[8] = molecular target: Voltage-gated inwardly rectifying potassium channel KCNH2 (Homo sapiens, UniProt Q12809); experiment: Inhibition of human ERG
Sequence of Voltage-gated inwardly rectifying potassium channel KCNH2 (Q12809 whole entry): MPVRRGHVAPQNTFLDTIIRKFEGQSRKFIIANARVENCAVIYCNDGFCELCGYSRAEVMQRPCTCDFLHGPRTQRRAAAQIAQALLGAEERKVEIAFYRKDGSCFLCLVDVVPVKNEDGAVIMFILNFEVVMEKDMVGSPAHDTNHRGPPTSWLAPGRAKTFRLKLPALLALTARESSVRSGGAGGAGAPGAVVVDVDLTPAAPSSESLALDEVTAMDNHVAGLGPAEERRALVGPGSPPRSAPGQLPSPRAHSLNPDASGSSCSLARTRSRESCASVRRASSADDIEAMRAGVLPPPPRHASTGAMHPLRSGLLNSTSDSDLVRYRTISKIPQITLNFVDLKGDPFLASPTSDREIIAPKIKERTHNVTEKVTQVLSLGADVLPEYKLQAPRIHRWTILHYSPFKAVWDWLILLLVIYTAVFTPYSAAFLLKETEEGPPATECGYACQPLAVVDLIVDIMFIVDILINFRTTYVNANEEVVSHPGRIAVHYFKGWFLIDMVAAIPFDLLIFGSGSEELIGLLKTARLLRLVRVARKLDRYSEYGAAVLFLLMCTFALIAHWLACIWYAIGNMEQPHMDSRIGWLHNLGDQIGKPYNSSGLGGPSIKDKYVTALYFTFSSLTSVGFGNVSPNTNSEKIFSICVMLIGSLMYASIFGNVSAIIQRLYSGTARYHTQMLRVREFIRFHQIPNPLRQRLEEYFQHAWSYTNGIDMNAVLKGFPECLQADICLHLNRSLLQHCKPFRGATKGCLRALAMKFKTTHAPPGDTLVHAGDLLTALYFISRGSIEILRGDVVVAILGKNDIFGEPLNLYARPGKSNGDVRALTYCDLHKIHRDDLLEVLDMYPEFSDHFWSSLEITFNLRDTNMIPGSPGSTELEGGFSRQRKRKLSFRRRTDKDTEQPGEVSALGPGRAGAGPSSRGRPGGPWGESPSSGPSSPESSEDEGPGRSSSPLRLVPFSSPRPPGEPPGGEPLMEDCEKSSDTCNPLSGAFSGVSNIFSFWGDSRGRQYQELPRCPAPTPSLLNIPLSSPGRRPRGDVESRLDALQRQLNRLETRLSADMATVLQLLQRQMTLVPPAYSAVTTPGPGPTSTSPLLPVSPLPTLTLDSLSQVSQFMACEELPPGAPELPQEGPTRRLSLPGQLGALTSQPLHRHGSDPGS

Mus musculus [9] = experiment: Reduction in plasma glucose level in ob/ob mouse at 200 mg/kg/day for 5 days measured after 5 days; type: functional; parameters: scale not given: the % may be the effect or the level left
[10] = molecular target: 11-beta-hydroxysteroid dehydrogenase 1 (Homo sapiens, UniProt P28845); experiment: Inhibition of human 11beta-HSD1
Sequence of 11-beta-hydroxysteroid dehydrogenase 1 (Homo sapiens, UniProt P28845) (P28845 whole entry): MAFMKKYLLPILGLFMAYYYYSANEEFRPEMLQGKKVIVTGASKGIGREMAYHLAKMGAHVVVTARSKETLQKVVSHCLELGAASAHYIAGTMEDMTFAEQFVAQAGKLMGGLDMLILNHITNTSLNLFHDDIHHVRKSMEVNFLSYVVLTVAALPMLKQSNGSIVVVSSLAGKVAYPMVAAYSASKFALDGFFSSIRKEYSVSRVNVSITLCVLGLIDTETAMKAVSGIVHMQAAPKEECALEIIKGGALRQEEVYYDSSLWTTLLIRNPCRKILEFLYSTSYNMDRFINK

Mus musculus [11] = experiment: Reduction in fasting blood glucose level in high fat diet-fed STZ-induced diabetes mouse model at 30 mg/kg bid for 9 days relative to vehicle-treated control; type: functional; parameters: scale not given: the % may be the effect or the level left
[12] = molecular target: T3, 11-beta-hydroxysteroid dehydrogenase type 2 (Mus musculus, UniProt P51661); experiment: Inhibition of mouse 11beta-HSD2
T3 sequence (P51661 whole entry): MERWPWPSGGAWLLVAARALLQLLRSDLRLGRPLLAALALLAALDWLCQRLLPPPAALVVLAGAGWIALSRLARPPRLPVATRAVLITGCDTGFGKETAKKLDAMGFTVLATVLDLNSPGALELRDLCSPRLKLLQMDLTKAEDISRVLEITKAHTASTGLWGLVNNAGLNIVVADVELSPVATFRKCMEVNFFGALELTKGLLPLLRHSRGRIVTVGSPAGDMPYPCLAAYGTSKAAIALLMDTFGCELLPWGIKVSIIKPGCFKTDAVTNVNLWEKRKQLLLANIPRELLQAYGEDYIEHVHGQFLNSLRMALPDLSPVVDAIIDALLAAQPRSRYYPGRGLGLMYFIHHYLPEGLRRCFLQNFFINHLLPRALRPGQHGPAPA

Mus musculus [13] = experiment: In vivo inhibition of 11beta-HSD1 in mouse assessed as inhibition of [3H]cortisone to [3H]cortisol conversion at 10 mg/kg, po measured after 1 hr relative to control; type: functional
Mus musculus [14] = experiment: In vivo inhibition of 11beta-HSD1 in mouse assessed as inhibition of [3H]cortisone to [3H]cortisol conversion at 10 mg/kg, po measured after 4 hrs relative to control; type: functional
Mus musculus [15] = experiment: Reduction in body weight in diet-induced obese mouse model at 20 mg/kg bid for 11 days relative to vehicle-treated control; type: functional; parameters: scale not given: the % may be the effect or the level left
Mus musculus [16] = experiment: Reduction in cumulative food intake in diet-induced obese mouse model at 20 mg/kg bid for 11 days relative to vehicle-treated control; type: functional; parameters: scale not given: the % may be the effect or the level left
Mus musculus [17] = experiment: Reduction in fasting blood glucose level in diet-induced obese mouse model at 20 mg/kg bid for 11 days relative to vehicle-treated control; type: functional; parameters: scale not given: the % may be the effect or the level left
Mus musculus [18] = experiment: Reduction in postprandial blood glucose level in high fat diet-fed STZ-induced diabetes mouse model at 30 mg/kg bid for 9 days relative to vehicle-treated control; type: functional; parameters: scale not given: the % may be the effect or the level left
Mus musculus [19] = experiment: Reduction in aortic total cholesterol accumulation in high fat diet-fed mouse model at 10 mg/kg/day for 8 weeks relative to vehicle-treated control; parameters: scale not given: the % may be the effect or the level left
Cynomolgus monkey [20] = experiment: In vivo inhibition of 11beta-HSD1 in cynomolgus monkey assessed as inhibition of prednisone to prednisolone conversion at 0.1 to 3 mg/kg relative to control; type: functional, Macaca fascicularis; settings: dose mg/kg 0.1-3
Cynomolgus monkey [21] = experiment: Reduction in plasma insulin level in cynomolgus monkey at 0.1 to 3 mg/kg; type: functional, Macaca fascicularis; settings: dose mg/kg 0.1-3
[22] = Tmax in healthy human by 14 day test; type: ADME, organism-based; settings: in vivo
[23] = Elimination half life in healthy human by 14 day test; type: ADME, organism-based; settings: in vivo, read-out: beta t1/2 (converted)
[24] = Clearance in healthy human by 14 day test; type: ADME, organism-based; settings: in vivo
Homo sapiens [25] = species on record: Homo sapiens; experiment: Inhibition of prednisone to prednisolone conversion in healthy human at 15 mg qd relative to control; type: functional
Homo sapiens [26] = species on record: Homo sapiens; experiment: Reduction in 5alpha/5beta-tetrahydrocortisol to tetrahydrocortisone ratio in healthy human at 15 mg qd relative to control; type: functional
[27] = Drug excretion in healthy human urine; type: ADME, tissue-based; settings: read-out: Drug excretion
[28] = Clearance in rat; type: ADME, organism-based; settings: in vivo
[29] = Oral bioavailability in rat; type: ADME, organism-based; settings: in vivo
[30] = Inhibition of cytochrome P450 (unknown origin); type: ADME, Homo sapiens
Mus musculus [31] = experiment: Ex vivo inhibition of 11beta-HSD1 in mouse fat at 20 mg/kg relative to control; type: functional
[32] = molecular target: T1, 11-beta-hydroxysteroid dehydrogenase 1; experiment: Inhibition of mouse 11beta-HSD1 expressed in HEK293 cells; type: cell-based
[33] = molecular target: 11-beta-hydroxysteroid dehydrogenase 1 (Rattus norvegicus, UniProt P16232); experiment: Inhibition of rat 11beta-HSD1 expressed in HEK293 cells; type: cell-based
Sequence of 11-beta-hydroxysteroid dehydrogenase 1 (Rattus norvegicus, UniProt P16232) (P16232 whole entry): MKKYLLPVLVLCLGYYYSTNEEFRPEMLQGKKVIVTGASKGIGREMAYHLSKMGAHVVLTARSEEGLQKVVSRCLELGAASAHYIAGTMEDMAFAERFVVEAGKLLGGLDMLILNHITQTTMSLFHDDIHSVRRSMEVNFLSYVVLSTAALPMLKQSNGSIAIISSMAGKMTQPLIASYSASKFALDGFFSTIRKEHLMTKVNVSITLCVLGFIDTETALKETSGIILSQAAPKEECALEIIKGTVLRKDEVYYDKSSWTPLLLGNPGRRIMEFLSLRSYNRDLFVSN

Mus musculus [34] = species on record: Mus musculus; experiment: Reduction in liver corticosterone level in adrenalectomized mouse model; type: functional
Mus musculus [35] = experiment: In vivo inhibition of 11beta-HSD1 in mouse assessed as inhibition of cortisone to cortisol conversion at 100 mg/kg relative to control; type: functional
Mus musculus [36] = experiment: In vivo inhibition of 11beta-HSD1 in mouse assessed as inhibition of cortisone to cortisol conversion at 5 mg/kg relative to control; type: functional
Homo sapiens [37] = species on record: Homo sapiens; experiment: Reduction in LDL-cholesterol in overweight/obese patient with hypertension at 7 mg relative to control; type: functional; parameters: scale not given: the % may be the effect or the level left
Homo sapiens [38] = species on record: Homo sapiens; experiment: Reduction in HDL-cholesterol in overweight/obese patient with hypertension at 7 mg relative to control; type: functional; parameters: scale not given: the % may be the effect or the level left
Homo sapiens [39] = species on record: Homo sapiens; experiment: Reduction in body weight in overweight/obese patient with hypertension at 7 mg relative to control; type: functional
Homo sapiens [40] = species on record: Homo sapiens; experiment: Toxicity in overweight/obese patient with hypertension assessed as increase in adrenal androgen level at 7 mg/day relative to control; type: organism-based; settings: in vivo
[41] = Inhibition of N-terminal His-tagged full length dog 11beta-HSD1 assessed as inhibition of cortisone to cortisol conversion preincubated for 25 mins measured after 2 hrs by HTRF assay; parameters: species or system Canis lupus familiaris

T1 sequence (P50172 whole entry): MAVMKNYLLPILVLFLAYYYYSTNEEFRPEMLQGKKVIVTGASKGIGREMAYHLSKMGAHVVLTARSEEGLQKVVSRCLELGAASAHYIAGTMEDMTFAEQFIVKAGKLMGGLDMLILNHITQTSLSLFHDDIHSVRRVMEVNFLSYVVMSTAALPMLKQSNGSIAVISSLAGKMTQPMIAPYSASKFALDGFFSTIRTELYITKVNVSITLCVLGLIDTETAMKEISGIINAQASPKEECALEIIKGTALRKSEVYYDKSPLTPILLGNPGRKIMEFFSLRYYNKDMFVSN

SMILES: F[C@H]1C[C@](c2ccc(Cl)cc2)(c2nnc(C3CC3)n2C2CC2)C1
Activity (Homo sapiens [4]): -0.3%
Activity (Homo sapiens [5]): 10.4%
Activity (Homo sapiens [6]): 20%

SMILES: Cc1c(Cl)cccc1S(=O)(=O)Nc1nc(CC(=O)N2CCN(C)CC2)cs1
pIC50 [7]: < 5.00
bioavailability [2]: 21%

SMILES: O=C(CN1C(C(=O)c2ccccc2)=C(O)c2ccccc2S1(=O)=O)c1ccccc1
pIC50 [8]: < 4.00
Activity (Mus musculus [9]): -27%

SMILES: C1CCc2nnc(C34CC5CC(CC(C5)C3)C4)n2CC1
pIC50 [7]: < 5.52
pIC50 [10]: 8.10
Activity (Mus musculus [11]): 37%
pIC50 [12]: < 5.00
inhibition in vivo at 10 mg/kg (Mus musculus [13]): 59%
inhibition in vivo at 10 mg/kg (Mus musculus [14]): 17%
Activity (Mus musculus [15]): 7%
Activity (Mus musculus [16]): 12%
Activity (Mus musculus [17]): 15%
Activity (Mus musculus [18]): 37%
Activity (Mus musculus [19]): 84%

SMILES: CC1CN(CC(=O)N[C@H]2C3CC4CC2C[C@](C(N)=O)(C4)C3)S(=O)(=O)N(c2c(Cl)cc(Cl)cc2Cl)C1 (stereo partly specified)
clearance [28]: 11.7 mL/min/kg
bioavailability [29]: 69%
pIC50 [30]: < 4.00
inhibition in vivo at 20 mg/kg (Mus musculus [31]): 96%

SMILES: COc1cc(C(=O)Nc2ccc(C(=O)N3CCCCC3)c(O)c2)cc(OC)c1OC
inhibition (INH) (Mus musculus [34]): 73%

SMILES: CCN1CCC[C@@H]1C(=O)NC1C2CC3CC(C2)CC1C3 (stereo partly specified)
%max (Mus musculus [35]): 82%
%max (Mus musculus [36]): 50%

SMILES: CCS(=O)(=O)CCCC12CCC(c3nnc(-c4ccccc4C(F)(F)F)n3C)(CC1)CC2 [MK-0736]
Activity (Homo sapiens [37]): -12.3%
Activity (Homo sapiens [38]): -6.3%
Activity (Homo sapiens [39]): -1.4 kg
fold change (FC) (Homo sapiens [40]): 2

SMILES: Cn1c(-c2ccccc2)nnc1C12CC3CC(CC(C3)C1)C2 [FIG 1]
inhibition in vivo at 10 mg/kg (Mus musculus [13]): 85%
inhibition in vivo at 10 mg/kg (Mus musculus [14]): 47%

More lines, main results first:

pIC50 [1]: 6.46
bioavailability [2]: 22%
clearance [3]: 42 mL/min/kg
SMILES: CC1(C)C(=O)N(c2cccc(S(C)(=O)=O)c2)C1c1cccc2nccnc12 (stereo unspecified)

pIC50 [1]: 6.51
SMILES: CN(C(=O)c1csc(CNS(=O)(=O)c2cccc(Cl)c2)n1)C1CCCCCC1

Tmax [22]: 1 h
half-life [23]: 30 h
clearance [24]: 16.7 mL/min
dose excreted [27]: < 1%
SMILES: N#Cc1ccc(-c2ccc(S(=O)(=O)Nc3cccc(N)n3)cc2)cc1
%max (Cynomolgus monkey [20]): 87%
%max (Cynomolgus monkey [21]): 60%
%max (Homo sapiens [25]): 37%
%max (Homo sapiens [26]): 26%

pIC50 [1]: 7.82
bioavailability [2]: 3%
clearance [3]: 130 mL/min/kg
SMILES: Cc1c(Cl)cccc1S(=O)(=O)N1CCCC[C@@H]1C(=O)N[C@H]1C2CC3CC1C[C@](O)(C3)C2

pIC50 [7]: < 5.00
SMILES: CCN(CC)C(=O)Cc1csc(NS(=O)(=O)c2cccc(Cl)c2C)n1

pIC50 [32]: 6.28
pIC50 [33]: 6.54
SMILES: CS(=O)(=O)NCCC(=O)N1CCC(c2cc(C(=O)N3CCC[C@H]4CCCC[C@H]43)cs2)CC1

pIC50 [41]: 6.92
SMILES: CSc1nc(N2C[C@@H]3[C@H](C2)[C@H]3C(=O)O)ccc1C(=O)NC12CC3CC(CC(C3)C1)C2

pIC50 [1]: 7.74
SMILES: Cc1c(Cl)cccc1S(=O)(=O)N1CCC[C@H](C(=O)N[C@H]2C[C@@H]3CC[C@@]2(C)C3(C)C)C1
